Test results as given in ChEMBL document CHEMBL2311389, “Pyrazole-based arylalkyne cathepsin S inhibitors. Part III: modification of P4 region” (Bioorg Med Chem Lett, 2013).
pIC50: −log10 of the molar value. ≈ marks a conversion by molar mass, not a printed value.

Tests used:
[1] = Equilibrium solubility in pH 7.0 phosphate buffer by LC/MS method; format: physicochemical
Cathepsin S [2] = target: T1, Cathepsin S (Homo sapiens, UniProt P25774); assay: Inhibition of cathepsin S in human JY cells assessed as invariant chain-li degradation; format: cell-based
Cathepsin S [3] = target: T1, Cathepsin S; assay: Inhibition of human cathepsin S
[4] = target: Voltage-gated inwardly rectifying potassium channel KCNH2 (Homo sapiens, UniProt Q12809); assay: Inhibition of human ERG by patch clamp assay
Chain of Voltage-gated inwardly rectifying potassium channel KCNH2 (Q12809 whole entry): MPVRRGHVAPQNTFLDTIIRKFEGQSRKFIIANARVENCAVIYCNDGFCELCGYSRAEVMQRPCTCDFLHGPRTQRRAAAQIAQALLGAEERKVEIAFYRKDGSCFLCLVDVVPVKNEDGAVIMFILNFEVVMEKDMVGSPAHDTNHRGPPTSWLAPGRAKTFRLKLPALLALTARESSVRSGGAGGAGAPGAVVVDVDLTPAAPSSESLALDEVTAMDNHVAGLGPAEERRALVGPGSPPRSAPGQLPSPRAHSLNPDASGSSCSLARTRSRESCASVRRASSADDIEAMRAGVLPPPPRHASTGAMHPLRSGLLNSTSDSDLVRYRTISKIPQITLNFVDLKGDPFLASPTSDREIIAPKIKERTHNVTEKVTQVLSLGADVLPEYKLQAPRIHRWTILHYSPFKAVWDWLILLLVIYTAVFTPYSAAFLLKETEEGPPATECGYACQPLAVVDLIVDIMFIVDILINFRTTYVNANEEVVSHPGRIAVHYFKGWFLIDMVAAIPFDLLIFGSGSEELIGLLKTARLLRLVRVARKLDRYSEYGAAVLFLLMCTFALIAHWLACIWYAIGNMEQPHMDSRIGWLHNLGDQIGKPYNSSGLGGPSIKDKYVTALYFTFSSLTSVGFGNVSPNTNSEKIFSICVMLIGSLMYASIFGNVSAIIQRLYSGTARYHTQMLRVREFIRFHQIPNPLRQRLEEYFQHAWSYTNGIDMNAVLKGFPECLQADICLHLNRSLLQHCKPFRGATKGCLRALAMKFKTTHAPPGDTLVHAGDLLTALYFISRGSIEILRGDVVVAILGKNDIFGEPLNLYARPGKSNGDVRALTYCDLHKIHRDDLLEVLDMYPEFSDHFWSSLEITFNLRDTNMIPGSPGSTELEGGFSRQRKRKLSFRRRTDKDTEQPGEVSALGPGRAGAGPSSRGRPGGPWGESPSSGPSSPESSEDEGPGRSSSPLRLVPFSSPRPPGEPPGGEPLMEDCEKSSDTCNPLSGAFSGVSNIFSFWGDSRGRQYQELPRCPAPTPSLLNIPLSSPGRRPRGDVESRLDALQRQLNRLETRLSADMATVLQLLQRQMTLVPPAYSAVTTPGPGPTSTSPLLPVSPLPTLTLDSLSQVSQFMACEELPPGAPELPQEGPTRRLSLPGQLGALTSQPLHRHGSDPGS

T1 sequence (P25774 whole entry): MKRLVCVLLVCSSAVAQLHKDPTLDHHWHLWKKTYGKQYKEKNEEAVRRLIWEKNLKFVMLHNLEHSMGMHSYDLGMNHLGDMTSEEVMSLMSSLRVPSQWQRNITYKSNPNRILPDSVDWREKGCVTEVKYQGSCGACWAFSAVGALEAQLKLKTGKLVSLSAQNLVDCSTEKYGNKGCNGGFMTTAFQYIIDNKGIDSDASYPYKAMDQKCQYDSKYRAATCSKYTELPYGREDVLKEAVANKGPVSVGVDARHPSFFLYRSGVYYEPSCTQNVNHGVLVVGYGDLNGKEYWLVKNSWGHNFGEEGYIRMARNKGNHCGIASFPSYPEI

## NC(=O)C(=O)N1CCc2c(c(-c3ccc(C(F)(F)F)c(SCCN4CCC(F)CC4)c3)nn2C[C@@H](O)CN2CCCCC2)C1
[1]
  solubility thermodynamic: < 1 µM

## NC(=O)N1CCc2c(c(-c3ccc(Cl)c(C#Cc4ccc(Cl)c(C(=O)N5CCNCC5)c4)c3)nn2CCCN2CCSCC2)C1
[1]
  solubility thermodynamic: 66 µM (≈ 44 µg/mL)
Cathepsin S [2]
  pIC50: 6.20

## NC(=O)C(=O)N1CCc2c(c(-c3ccc(Cl)c(C#Cc4ccc(CNCc5ccc(Cl)cc5)cc4)c3)nn2CCCN2CCN(c3ccccc3)CC2)C1
[1]
  solubility thermodynamic: < 1 µM
Cathepsin S [2]
  pIC50: 6.25
Cathepsin S [3]
  pIC50: 8.00

## NC(=O)N1CCc2c(c(-c3ccc(Cl)c(C#Cc4ccc(CNCc5ccc(Cl)cc5)cc4)c3)nn2CCCN2CCSCC2)C1
[4]
  inhibition (INH): Not Active
[1]
  solubility thermodynamic: < 1 µM
Cathepsin S [2]
  pIC50: 6.06
Cathepsin S [3]
  pIC50: 7.15

## NC(=O)C(=O)N1CCc2c(c(-c3ccc(Cl)c(C#Cc4ccc(CNCc5ccc(Cl)cc5)cc4)c3)nn2CCCN2CCSCC2)C1
[1]
  solubility thermodynamic: < 1 µM
Cathepsin S [2]
  pIC50: 6.57

## C[C@@H]1COCCN1CCCn1nc(-c2ccc(Cl)c(C#Cc3ccc(CNCc4ccc(Cl)cc4)cc3)c2)c2c1CCN(C(N)=O)C2
[1]
  solubility thermodynamic: 3 µM (≈ 2.02 µg/mL)
Cathepsin S [2]
  pIC50: 5.81
Cathepsin S [3]
  pIC50: 6.96

## C[C@@H]1COCCN1CCCn1nc(-c2ccc(Cl)c(C#Cc3ccc(CNCc4ccc(Cl)cc4)cc3)c2)c2c1CCN(C(=O)C(N)=O)C2
[4]
  inhibition (INH): Not Active
[1]
  solubility thermodynamic: < 1 µM
Cathepsin S [2]
  pIC50: 6.02
Cathepsin S [3]
  pIC50: 7.30

## NC(=O)N1CCc2c(c(-c3ccc(Cl)c(C#Cc4ccc(C(=O)NCc5ccc(Cl)cc5)cc4)c3)nn2CCCN2CCSCC2)C1
Cathepsin S [2]
  pIC50: < 5.00

## NC(=O)N1CCc2c(c(-c3ccc(Cl)c(C#Cc4ccc(C(=O)NCc5cccnc5)cc4)c3)nn2CCCN2CCSCC2)C1
Cathepsin S [2]
  pIC50: < 5.00

## NC(=O)N1CCc2c(c(-c3ccc(Cl)c(C#Cc4ccc(C(=O)NC[C@@H]5CCCN5)cc4)c3)nn2CCCN2CCSCC2)C1
[1]
  solubility thermodynamic: 81 µM (≈ 52.3 µg/mL)
Cathepsin S [2]
  pIC50: < 5.00

## NC(=O)N1CCc2c(c(-c3ccc(Cl)c(C#Cc4ccc(COCc5cccnc5)cc4)c3)nn2CCCN2CCSCC2)C1
Cathepsin S [2]
  pIC50: < 5.00

## NC(=O)N1CCc2c(c(-c3ccc(Cl)c(C#Cc4ccc(Cl)c(C(=O)NC[C@@H]5CCCN5)c4)c3)nn2CCCN2CCSCC2)C1
[1]
  solubility thermodynamic: 175 µM (≈ 119 µg/mL)
Cathepsin S [2]
  pIC50: 6.21

## NC(=O)N1CCc2c(c(-c3ccc(Cl)c(C#Cc4ccc(Cl)c(C(=O)NCCN5CCOCC5)c4)c3)nn2CCCN2CCSCC2)C1
[1]
  solubility thermodynamic: 9 µM (≈ 6.4 µg/mL)
Cathepsin S [2]
  pIC50: 6.21

## CN(C)S(=O)(=O)N1CCc2c(c(-c3ccc(Cl)c(C#Cc4ccc(CNCc5ccc(Cl)cc5)cc4)c3)nn2CCCN2CCOCC2)C1
Cathepsin S [2]
  pIC50: 5.30

## CC(=O)NCC(=O)N1CCc2c(c(-c3ccc(Cl)c(C#Cc4ccc(CNCc5ccc(Cl)cc5)cc4)c3)nn2CCCN2CCOCC2)C1
Cathepsin S [2]
  pIC50: 5.96

## NC(=O)C(=O)N1CCc2c(c(-c3ccc(Cl)c(C#Cc4ccc(CNCc5ccc(Cl)cc5)cc4)c3)nn2CCCN2CCOCC2)C1
[1]
  solubility thermodynamic: < 1 µM
Cathepsin S [2]
  pIC50: 6.29
Cathepsin S [3]
  pIC50: 7.22

## CN(C)C(=O)C(=O)N1CCc2c(c(-c3ccc(Cl)c(C#Cc4ccc(CNCc5ccc(Cl)cc5)cc4)c3)nn2CCCN2CCOCC2)C1
[1]
  solubility thermodynamic: < 1 µM
Cathepsin S [2]
  pIC50: 5.76

## NC(=O)N1CCc2c(c(-c3ccc(Cl)c(C#Cc4ccc(CNCc5ccc(Cl)cc5)cc4)c3)nn2CCCN2CCCCC2)C1
Cathepsin S [2]
  pIC50: 6.70

## NC(=O)C(=O)N1CCc2c(c(-c3ccc(Cl)c(C#Cc4ccc(CNCc5ccc(Cl)cc5)cc4)c3)nn2CCCN2CCCCC2)C1
Cathepsin S [2]
  pIC50: 6.52

## NC(=O)N1CCc2c(c(-c3ccc(Cl)c(C#Cc4ccc(CNCc5ccc(Cl)cc5)cc4)c3)nn2CCCN2CCC(C(F)(F)F)CC2)C1
[1]
  solubility thermodynamic: < 1 µM
Cathepsin S [2]
  pIC50: 6.16
Cathepsin S [3]
  pIC50: 7.22

## NC(=O)C(=O)N1CCc2c(c(-c3ccc(Cl)c(C#Cc4ccc(CNCc5ccc(Cl)cc5)cc4)c3)nn2CCCN2CCC(C(F)(F)F)CC2)C1
[1]
  solubility thermodynamic: < 1 µM
Cathepsin S [2]
  pIC50: 5.75

## NC(=O)N1CCc2c(c(-c3ccc(Cl)c(C#Cc4ccc(CNCc5ccc(Cl)cc5)cc4)c3)nn2CCCN2CCN(c3ccccc3)CC2)C1
Cathepsin S [2]
  pIC50: 6.15

## NC(=O)N1CCc2c(c(-c3ccc(Cl)c(C#Cc4ccc(CNCc5ccc(Cl)cc5)cc4)c3)nn2CCCN2CCOCC2)C1
Cathepsin S [2]
  pIC50: 6.36

## CS(=O)(=O)N1CCc2c(c(-c3ccc(Cl)c(C#Cc4ccc(CNCc5ccc(Cl)cc5)cc4)c3)nn2CCCN2CCOCC2)C1
[1]
  solubility thermodynamic: < 1 µM

## NC(=O)N1CCc2c(c(-c3ccc(Cl)c(C#Cc4ccc(COCC5CNCCO5)cc4)c3)nn2CCCN2CCSCC2)C1 (racemic)
[1]
  solubility thermodynamic: 46 µM (≈ 29.9 µg/mL)
Cathepsin S [2]
  pIC50: < 5.00

## NC(=O)N1CCc2c(c(-c3ccc(Cl)c(C#Cc4ccc(Cl)c(C(=O)NCC5CCCNC5)c4)c3)nn2CCCN2CCSCC2)C1 (racemic)
Cathepsin S [2]
  pIC50: 6.29
